The record followed here is paper PMC11820896, “New Compounds with Enhanced Biological Activity Through the Strategic Introduction of Silylated Groups into Hydroxystearic Acids” (Molecules, 2025).

Assay [1] concerns MCF7. Description: MTT assay, MCF7 cells. Format: cell-based. As to conditions: Homo sapiens, means of four experiments, na = not active, read-out: In vitro cytotoxic activity (IC50), MCF7. As to the method: (§1) The human colorectal adenocarcinoma (Caco-2), human colorectal adenocarcinoma (HT29), normal human intestinal (I407), human cervical cancer (HeLa), human breast cancer (MCF7), human bone osteosarcoma (U2OS), and human acute T-cell leukemia (Jurkat J6) cell lines were purchased from American Type Culture Collection (ATCC, Manassas, VA, USA). Cells were cultured in RPMI 1640 medium (Labtek Eurobio, Milan, Italy), supplemented with 10% FCS (Euroclone, Milano, Italy) and 2 mM L-glutamine (Sigma-Aldrich, Milano, Italy), at 37 °C and in a 5% CO2 atmosphere. The compounds were dissolved in DMSO in a 30–40 mM stock solution. In cell treatments, the final DMSO concentration never exceeded 0.1%.
(§2) Cells were seeded in a 96-well culture plastic plate (Sarsted, Milan, Italy), at 5 × 10^4 cells/well and, after 24 h, were exposed to increasing concentrations of the different compounds (from 1 nM to 500 nM) dissolved in RPMI 1640 medium. An MTT assay was performed according to Micheletti et al..
(§3) The absorbance at 570 nm was measured using a multi-well plate reader (Tecan, Männedorf, Switzerland), and data were analyzed by Prism GraphPad 8 software and expressed as IC50 nM.

Assay [2] relates to U2OS. Description: MTT assay, U2OS cells. The class given is cell-based. As to conditions: Homo sapiens, means of four experiments, na = not active, read-out: In vitro cytotoxic activity (IC50), U2OS. As to the method:
as §1, §2, §3
In general terms: Tetrazolium assays rely on reduction of a dye to a coloured formazan, in cell work by metabolically active cells.

Assay [3] relates to J6. Description: MTT assay, Jurkat J6 cells. The class given is cell-based. As to conditions: Homo sapiens, means of four experiments, na = not active, read-out: In vitro cytotoxic activity (IC50), J6. The method, then: as §1, §2, §3
Assay [4] deals with HCT116. In words: MTT assay, HCT116 cells. Format: cell-based, human. As to the method: Cells were seeded in a 96-well culture plastic plate (Sarsted, Milan, Italy), at 5 × 10^4 cells/well and, after 24 h, were exposed to increasing concentrations of the different compounds (from 1 nM to 500 nM) dissolved in RPMI 1640 medium. An MTT assay was performed according to […] al.. The absorbance at 570 nm was measured using a multi-well plate reader (Tecan, Männedorf, Switzerland), and data were analyzed by Prism GraphPad 8 software and expressed as IC50 nM.

For assay [5], the system named is I407. Description: MTT assay, normal I407 cells. Conditions: Homo sapiens; normal intestinal line; MTT after 24 h of treatment; means of four experiments. Format: cell-based. The method, then: as §1, §2, §3
The subject of assay [6] is HT29 cells. Description: Mitochondrial potential by JC-1 staining. Format: cell-based, human. Conditions: 24 h treatment. The method, then: JC-1 is a dye that is permeable to alive cells and is accumulated in the anionic mitochondrial matrix indicating the level of mitochondrial potential. When present at low concentrations, the JC-1 monomer fluorescence is green (around 535 nm), while at increased concentration, it can aggregate and fluoresces in the red (600 nm). The ratio between the red fluorescence and the green one is directly proportional to the mitochondrial activity. […] Negative controls were treated in the same way, but JC-1 was not added to these samples. The plates were read on the Ensight plate reader, exciting the red fluorescence at 506 nm and the green one at 488 nm, while the emission was, respectively, read at 595 nm and 535 nm, and the ratio between the red and green fluorescence was calculated.

Assay [7] has as its system HT29 cells. Description: Western blot of γH2AX (DNA damage). The class given is cell-based, human. As to conditions: 50 nM, 6 h. The method, then:
(§4) HT29 were seeded at a density of 1.5 × 10^4 cell/cm^2 in a Petri dish and, after 24 h, treated for 6 h with 50 nM of compound 4. Cells were harvested, and histones were extracted by previously isolated nuclei according to […] al.. The proteins were resolved on a 10% gel in MES buffer at 200 V for 35 min and immunoblotted with mouse anti-acetylated lysines (Millipore, Billerica, MA, USA) or rabbit anti-γH2Ax (Santa Cruz Biotechnology, Dallas, TX, USA) primary antibodies. The membranes were developed with Clarity Western ECL Substrate (Bio-Rad, Hercules, CA, USA) after incubation with mouse or rabbit secondary horseradish peroxidase-conjugated antibody (GE Healthcare, Chicago, IL, USA). SDS-PAGE was stained with Coomassie Brilliant Blue R-250 (Bio-Rad, Hercules, CA, USA), while densitometric analyses were performed using a Fluor-S Max MultiImager (Bio-Rad, Hercules, CA, USA), and relative quantification of histone acetylation and histone H2Ax phosphorylation signals were normalized to the H1 signal as a control.
For orientation: Immunoblotting shows a protein as a band on a membrane.

For assay [8], the system named is HT29 cells. Description: Neutral lipid staining (LipidTOX), confocal microscopy. Format: cell-based, human. Conditions: 50 nM, 48 h. As to the method:
HT29 cells were grown on glass coverslips, treated as described above, and then washed three times with PBS. The intracellular accumulation of neutral lipids was assessed using LipidTOX™ Red Neutral Lipid Dye (Thermo Fisher Scientific, Waltham, MA, USA) according to the manufacturer’s indications. Specimens embedded in Mowiol were analyzed by confocal microscopy using a Nikon C1si confocal microscope (Nikon, Tokyo, Japan). Fluorescence was excited with a laser tuned at 595 nm, and detected at 650 nm.

In assay [9] the test system is histones H2/H3 and H4 of HT29 cells. Description: Histone acetylation status, Western blot. Format: cell-based, human. Conditions: 50 nM, 6 h. As to the method:
as §4

Assay [10] relates to FASN. In words: FASN mRNA expression, qRT-PCR. The class given is cell-based, human. As to conditions: after 6 h of treatment, HT29. The method, then:
(§5) Total RNA from control- and 4-treated HT29 cells was isolated using the RNeasy Mini Kit (Qiagen, Hilden, Germany) according to the manufacturer's protocol. RNA was quantified using the NanoDrop spectrophotometer (Thermo Fisher Scientific, Waltham, MA, USA). RNA (1 μg) was transcribed into cDNA using the PrimeScript RT Master Mix (Perfect Real Time) (Takara Bio, Kusatsu, Japan) according to the manufacturer's instructions. Real-time PCR was performed using the Sybr Premix Ex Taq Takara kit (Takara Bio, Kusatsu, Japan) and the LightCycler 2.0 instrument (Roche Diagnostic, Basel, Switzerland). The following primers (Sigma-Aldrich, Milan, Italy) were used: [NT] (forward) and [NT] (reverse) for FASN detection, [NT] (forward) and [NT] (reverse) for SCD1 detection, and [NT] (forward) and [NT] (reverse) for the detection of β-actin. The first gene analyzed was the housekeeping gene β-actin, and its CT values were used as standards in the ΔΔCT method of result analysis. cDNA samples from HT29-treated cells were compared with untreated control cells.
Background: Real-time PCR tracks product formation cycle by cycle.

Assay [11] has as its system SCD1. Description: SCD1 mRNA expression, qRT-PCR. Format: cell-based, human. As to conditions: after 24 h, HT29. As to the method:
as §5

Turning to `CCCCCCCCC[C@H](CCCCCCCC(=O)O)O[Si](C)(C)C(C)(C)C` [Compound 4, (R)-9-((tert-butyldimethylsilyl)oxy)octadecanoic acid], the 50% inhibitory concentration (IC50) came to 211.6 ± 0.23 nM in assay [1]; 36.81 ± 0.18 nM in assay [2]; 214.1 ± 0.26 nM in assay [3]; 21.49 ± 0.16 nM in [4] (Homo sapiens, HCT-116, MTT after 24 h of treatment, means of four experiments); 61.91 ± 0.26 nM in [5]. Moreover, the “S.I. (Selective Index), HCT116” value in assay [4] (versus normal I407 cells) was 2.88. Also, the “change in mitochondrial potential” value in assay [6] is listed as “does not lead to a change”. In [7], the “changes in the γH2AX marker” value is given as “does not induce any changes”. For the same molecule, the “accumulation of lipid droplets (neutral lipids)” value in assay [8] is recorded as “significantly reduces”. For the same molecule, in assay [9], the “acetylation state of histones H2/H3 and H4” value is recorded as “extended increase”. The FASN gene expression entry in assay [10] was “marked down-regulation”. Further, the SCD1 gene expression entry in assay [11] is given as “decreases”.

The term IC50 denotes the concentration that gives 50% inhibition.
